Measured values as given in patent US10377711B2, “Cannabinoid type 1 receptor modulators” (priority 2014, dated 2019).

Columns and labels:
in vitro = details: both, microsomes, pH 7.4
Method: Human and Rat Liver Microsomal Stability Assay
The metabolic stability of the compounds of the Formula (I) was measured by determination of the rate of compound disappearance when incubated in the presence of both human and rat liver microsomes. Liver microsomes are prepared from the endoplasmic reticulum of hepatocytes and are the primary source of the most important enzymes (cytochrome P450) involved in drug metabolism. Study of drug stability in the presence of liver microsomes is accepted as a valuable model permitting rapid prediction of in vivo drug stability.
Human and rat liver microsomes were obtained from a commercial source. Test compounds (3 μM) were incubated with pooled liver microsomes (male and female). Samples were incubated for a 45 minute period and removed at 5 time points and test compounds were analysed by LC-MS/MS.
The final incubation volume was 25 μL. A control incubation was included for each compound tested, where 0.1 M phosphate buffer pH 7.4 was added instead of NADPH. The control compounds testosterone and 7-hydroxycoumarin were included in each experiment and all incubations were performed singularly for each compound.
Each compound was incubated for 0, 5, 15, 30, and 45 minutes. The control (minus NADPH) was incubated for 45 minutes only. The reactions were stopped by the addition of 50 μL methanol containing internal standard at the appropriate time points. The incubation plates were centrifuged at 2500 rpm for 20 minutes at 4° C. to precipitate the protein.
Following protein precipitation, the sample supernatants were combined in cassettes of up to 4 compounds and analysed using standard LC-MS/MS conditions.
From a plot of the natural logarithm of the peak area ratio (i.e., the ratio of compound peak area:internal standard peak area) against time, the gradient of the line was determined. Subsequently, half-life and intrinsic clearance were calculated using the equations below: Eliminated Rate Constant (k)=(−Gradient).

[1] = target: T1, CB1 receptor (HEK293 CB1 β-arrestin cells) (Homo sapiens, UniProt P21554); test: PathHunter β-Arrestin assay, enhancement of anandamide stimulation; format: cell-based; details: maximum % increase in stimulation caused by anandamide; for Potency % Enhancement 1000 nM: 1000 nM test compound; for Potency % Enhancement 300 nM: 300 nM test compound; for Potency % Enhancement 100 nM: 100 nM test compound
T1 construct: host or cells: HEK293 CB1 β-arrestin cells (PathHunter)
T1 sequence (P21554 whole entry): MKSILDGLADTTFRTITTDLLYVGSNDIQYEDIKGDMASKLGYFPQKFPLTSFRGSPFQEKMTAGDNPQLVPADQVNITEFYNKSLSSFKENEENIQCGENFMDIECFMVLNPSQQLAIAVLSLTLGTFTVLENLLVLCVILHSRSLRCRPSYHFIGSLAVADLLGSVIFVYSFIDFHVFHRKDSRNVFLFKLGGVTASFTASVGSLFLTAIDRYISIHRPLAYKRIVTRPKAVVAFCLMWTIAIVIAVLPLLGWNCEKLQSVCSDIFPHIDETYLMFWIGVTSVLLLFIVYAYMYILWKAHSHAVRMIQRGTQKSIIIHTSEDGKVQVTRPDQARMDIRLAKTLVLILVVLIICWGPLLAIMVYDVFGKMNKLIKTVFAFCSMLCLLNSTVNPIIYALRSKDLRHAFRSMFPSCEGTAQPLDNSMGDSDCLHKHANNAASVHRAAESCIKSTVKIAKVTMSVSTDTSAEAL
Excerpt: PathHunter™ β-Arrestin Assays
β-Arrestins are multifunctional intracellular proteins that interact with a structurally diverse group of cell surface receptors including GPCRs, to regulate cellular functions (see, e.g., Violin and Lefkowitz, 2007).
PathHunter™ enzyme fragment complementation is the most important method to measure β-arrestin recruitment. PathHunter™ β-Arrestin assays developed by DiscoveRX are revolutionary high-throughput screening assays for monitoring GPCR activation following ligand stimulation, without an imaging instrument, fluorescent protein tag, or radioactivity.
Instead, the assays detect GPCR activation through binding of β-arrestin to the expressed GPCR of interest, and measure the interaction of the two proteins using enzyme fragment complementation (EFC). The EFC approach offers a range of benefits for screening; including signal amplification and robust performance.
The larger portion of β-gal, termed EA for enzyme acceptor, is fused to the C-terminus of β-arrestin. The smaller, complementing fragment of β-gal, the ProLink™ tag, is expressed as a fusion protein with the GPCR of interest at the C-terminus. Upon activation, the GPCR is bound by β-arrestin. The interaction of β-arrestin and the GPCR forces the interaction of ProLink and EA, thus allowing complementation of the two fragments of β-gal and the formation of a functional enzyme capable of hydrolyzing substrate and generating a […] signal.
Using the PathHunter™ CB1 kit from DiscoveRX, a cannabinoid CB1 receptor agonist is added and activates the receptor, EA, which is fused to the C-terminus of β-arrestin, and then interacts with the ProLink™ tag which is fused to the CB1 receptor. This will result in the […] signal that is recorded by a luminescence plate reader. The […] signal is directly related to the activation of the receptor, therefore a higher concentration of agonist will yield a larger […] signal. The cannabinoid agonist is added in increasing concentrations to obtain an agonist dose response curve. With pre-incubation of a potential allosteric modulator, either an enhancement of agonist signalling with an allosteric enhancer or a decrease in the maximal response of the agonist with an allosteric inhibitor is expected.
All raw data are obtained as luminescence (relative light units), and are normalised and presented as a percentage of the maximal response for the endogenous cannabinoid CB1 receptor agonist anandamide (N-arachidonoylethanolamine).
The PathHunter™ β-Arrestin assay (from DiscoveRX, Fremont, USA) was performed as follows. HEK293 CB1 β-arrestin cells were plated 48 hours before use and incubated at 37° C., 5% CO2 in a humidified incubator. Test compounds were dissolved in dimethylsulfoxide (DMSO) and diluted in optimized cell culture media (OCC, as supplied by DiscoveRX) media to the required concentrations. 5 μL of test compound or vehicle solution was added to each well and incubated for 60 minutes at 37° C., 5% CO2 in a humidified incubator. 5 μL of increasing concentrations of anandamide was added to each well followed by a 90 minute incubation at 37° C., 5% CO2 in a humidified incubator. 55 μL of detection reagent (as supplied by DiscoveRX) was then added, followed by a further 90 minute incubation at room temperature in the dark. Chemiluminescence, reported in relative light units (RLU—a dimensionless value, standardised as a % of maximum stimulation with anandamide), was measured on a standard luminescence plate reader.
Data were plotted as % of maximal stimulation (Emax) caused by agonist versus the logarithm of concentration of agonist, in the presence or absence of a fixed concentration of test compound (modulator) or vehicle. For example, stimulation in the presence of agonist alone will give a value for stimulation expressed in RLU, which can be expressed as a range from 0% (at lowest agonist concentration, e.g., 1 nM) to 100% (at the highest agonist concentration, e.g., 10 μM). […]

CB1 receptor [2] = target: T2, CB1 receptor (Mus musculus, UniProt P47746); details: equilibrium binding assay; cited from earlier work
T2 sequence (P47746 whole entry): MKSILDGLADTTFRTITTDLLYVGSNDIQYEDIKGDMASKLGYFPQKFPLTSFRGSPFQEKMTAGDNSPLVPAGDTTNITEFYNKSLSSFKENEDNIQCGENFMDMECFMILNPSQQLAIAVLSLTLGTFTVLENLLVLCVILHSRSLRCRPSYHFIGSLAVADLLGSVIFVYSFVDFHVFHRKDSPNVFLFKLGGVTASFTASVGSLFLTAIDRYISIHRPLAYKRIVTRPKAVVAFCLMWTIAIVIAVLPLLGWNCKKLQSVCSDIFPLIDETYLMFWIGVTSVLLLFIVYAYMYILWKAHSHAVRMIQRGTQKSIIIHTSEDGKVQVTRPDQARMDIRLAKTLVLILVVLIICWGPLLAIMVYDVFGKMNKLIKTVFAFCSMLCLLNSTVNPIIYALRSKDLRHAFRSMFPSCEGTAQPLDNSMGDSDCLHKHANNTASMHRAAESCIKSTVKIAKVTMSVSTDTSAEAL

CB1 receptor [3] = target: T2, CB1 receptor; design: from the CB1 receptor in mouse brain membranes; host or cells: mouse brain membranes; details: mouse brain membranes; cited from earlier work
[4] = tested on: C57BL/6J mice; FAAH knockout mice; details: cited from earlier work
CCI model = details: antagonized by rimonabant; cited from earlier work

For `Cc1ccc2c(C(C[N+](=O)[O-])c3ccccc3)c(-c3ccccc3)[nH]c2c1` (stereo not drawn) [ABD999], the half-life at 3 μM (in vitro; human) was 47.7 min, the microsomal CLint at 3 μM (in vitro; human) was 29.1 µL/min/mg and the “Potency % Enhancement 1000 nM” value [1] was 76.8%.
For `O=C(O)CC(c1ccccc1)c1c(-c2ccccc2)[nH]c2ccc(Cl)cc12` (stereo not drawn) [ABD1003], the “Potency % Enhancement 1000 nM” value [1] was 0%.
In the case of `CS(=O)(=O)NCC(c1ccccc1)c1c(-c2ccccc2)[nH]c2ccccc12` (stereo not drawn) [ABD1009], the “Potency % Enhancement 1000 nM” value [1] is reported as 0%.
For `NCC(c1ccccc1)c1c(-c2ccccc2)[nH]c2ccccc12` (stereo not drawn) [ABD1009a], the “Potency % Enhancement 1000 nM” value [1] was 0%.
For `NC(=O)NCC(c1ccccc1)c1c(-c2ccccc2)[nH]c2ccccc12` (stereo not drawn) [ABD1011], the “Potency % Enhancement 1000 nM” value [1] was 0%.
For `c1ccc(-c2[nH]c3ccccc3c2-n2nnnc2-c2ccccc2)cc1` [ABD1077], the “Potency % Enhancement 1000 nM” value [1] was 0%.
With `c1ccc(-c2[nH]c3ccccc3c2-c2nnnn2-c2ccccc2)cc1` [ABD1078] the “Potency % Enhancement 1000 nM” value [1] was 0%.
In the case of `CS(=O)(=O)NC(c1ccccc1)c1c(-c2ccccc2)[nH]c2ccccc12` (stereo not drawn) [ABD1097], the “Potency % Enhancement 1000 nM” value [1] is reported as 0%.
In the case of `O=S(=O)(NC(c1ccccc1)c1c(-c2ccccc2)[nH]c2ccccc12)c1ccccc1` (stereo not drawn) [ABD1098], the “Potency % Enhancement 1000 nM” value [1] is reported as 0%.
With `N#CC(C#N)C(c1ccccc1)c1c(-c2ccccc2)[nH]c2ccccc12` (stereo not drawn) [ABD1100, 2-(Phenyl(2-phenyl-1H-indol-3-yl)methyl)malononitrile] the “Potency % Enhancement 300 nM” value [1] was 0% and the “Potency % Enhancement 1000 nM” value [1] was 19.6%.
With `O=C(O)CC(c1ccccc1)c1c(-c2ccccc2)[nH]c2ccccc12` (stereo not drawn) [ABD1101a] the “Potency % Enhancement 1000 nM” value [1] was 0%.
For `N#CCC(c1ccccc1)c1c(-c2ccccc2)[nH]c2ccccc12` (stereo not drawn) [ABD1102, 3-Phenyl-3-(2-phenyl-1H-indol-3-yl)propanenitrile], the “Potency % Enhancement 300 nM” value [1] was 0% and the “Potency % Enhancement 1000 nM” value [1] was 21.9%.
With `NC(=O)CC(c1ccccc1)c1c(-c2ccccc2)[nH]c2ccccc12` (stereo not drawn) [ABD1105] the “Potency % Enhancement 1000 nM” value [1] was 0%.
In the case of `CNC(=O)CC(c1ccccc1)c1c(-c2ccccc2)[nH]c2ccccc12` (stereo not drawn) [ABD1106], the “Potency % Enhancement 1000 nM” value [1] is reported as 0%.
With `c1ccc(-c2[nH]c3ccccc3c2C(Cn2ccnn2)c2ccccc2)cc1` (stereo not drawn) [ABD1117] the “Potency % Enhancement 1000 nM” value [1] was 0%.
For `NNC(=O)CC(c1ccccc1)c1c(-c2ccccc2)[nH]c2ccccc12` (stereo not drawn) [ABD1131], the “Potency % Enhancement 1000 nM” value [1] was 0%.
For `Cc1ccc2c(C(CC#N)c3ccccc3)c(-c3ccccc3)[nH]c2c1` (stereo not drawn) [ABD1132, 3-(6-Methyl-2-phenyl-1H-indol-3-yl)-3-phenylpropanenitrile], the “Potency % Enhancement 300 nM” value [1] was 21.6% and the “Potency % Enhancement 1000 nM” value [1] was 80.6%.
In the case of `Cc1ccc2c(C(c3ccccc3)C(C#N)C#N)c(-c3ccccc3)[nH]c2c1` (stereo not drawn) [ABD1133, 2-((6-Methyl-2-phenyl-1H-indol-3-yl)(phenyl)methyl)malononitrile], the “Potency % Enhancement 300 nM” value [1] is reported as 68.7% and the “Potency % Enhancement 1000 nM” value [1] is reported as 40.4%.
With `FC(F)(F)CC(c1ccccc1)c1c(-c2ccccc2)[nH]c2ccccc12` (stereo not drawn) [ABD1137, 2-Phenyl-3-(3,3,3-trifluoro-1-phenylpropyl)-1H-indole] the “Potency % Enhancement 300 nM” value [1] was 0% and the “Potency % Enhancement 1000 nM” value [1] was 20.7%.
For `O=C(C(c1ccccc1)c1c(-c2ccccc2)[nH]c2ccccc12)C(F)(F)F` (stereo not drawn) [ABD1139, 1,1,1-Trifluoro-3-phenyl-3-(2-phenyl-1H-indol-3-yl)propan-2-one], the “Potency % Enhancement 300 nM” value [1] was 0% and the “Potency % Enhancement 1000 nM” value [1] was 18.6%.
With `Cc1ccc2c(C(CC(F)(F)F)c3ccccc3)c(-c3ccccc3)[nH]c2c1` (stereo not drawn) [ABD1145, 6-Methyl-2-phenyl-3-(3,3,3-trifluoro-1-phenylpropyl)-1H-indole] the “Potency % Enhancement 100 nM” value [1] was 45.5% and the “Potency % Enhancement 1000 nM” value [1] was 61.9%.
For `Cc1ccc2c(C(C(=O)C(F)(F)F)c3ccccc3)c(-c3ccccc3)[nH]c2c1` (stereo not drawn) [ABD1146, 1,1,1-Trifluoro-3-(6-methyl-2-phenyl-1H-indol-3-yl)-3-phenylpropan-2-one], the “Potency % Enhancement 100 nM” value [1] was 34.0% and the “Potency % Enhancement 1000 nM” value [1] was 81.0%.
With `Cc1ccc2c(C(c3cccs3)C(C#N)C#N)c(-c3ccccc3)[nH]c2c1` (stereo not drawn) [ABD1155, 2-((6-Methyl-2-phenyl-1H-indol-3-yl)(thiophen-2-yl)methyl)malononitrile] the “Potency % Enhancement 1000 nM” value [1] was 67.4%.
For `Cc1ccc2c(C(CC(F)(F)F)c3cccs3)c(-c3ccccc3)[nH]c2c1` (stereo not drawn) [ABD1187, 6-Methyl-2-phenyl-3-(3,3,3-trifluoro-1-(thiophen-2-yl)propyl)-1H-indole], the microsomal CLint at 3 μM (in vitro; human) was 5 µL/min/mg.
For `CCc1c(C(=O)NCCc2ccc(N3CCCCC3)cc2)[nH]c2ccc(Cl)cc12` [ORG27569], the “binding of CP55940” value (CB1 receptor [2]) is given as “increase”, the “binding of radiolabelled inverse agonist SR141716A” value (CB1 receptor [2]) is given as “decrease” and the “dissociation of radiolabelled CB1 receptor agonist CP55940 from the CB1 receptor” value (from here on “dissociation”) (CB1 receptor [3]) is given as “slowing of the dissociation”.
In the case of `CCc1c(C(=O)NCCc2ccc(N(C)C)cc2)[nH]c2ccc(F)cc12` [ORG27759], the “binding of CP55940” value (CB1 receptor [2]) is given as “increase”, the “binding of radiolabelled inverse agonist SR141716A” value (CB1 receptor [2]) is given as “decrease” and the “dissociation” value (CB1 receptor [3]) is given as “slowing of the dissociation”.
In the case of `CCc1c(C(=O)NC2CCN(Cc3ccccc3)C2)[nH]c2ccc(Cl)cc12` (stereo not drawn) [ORG29647], the “binding of CP55940” value (CB1 receptor [2]) is listed as “increase”, the “binding of radiolabelled inverse agonist SR141716A” value (CB1 receptor [2]) is listed as “decrease” and the “dissociation” value (CB1 receptor [3]) is listed as “slowing of the dissociation”.
For `Cc1ccc2c(C(C[N+](=O)[O-])c3cccs3)c(-c3ccccc3)[nH]c2c1` (stereo not drawn) [ZCZ011], the “enhancement of the pharmacological effects of CP55,940” value ([4]; 40 mg/kg, C57BL/6J mice) is listed as “significantly enhanced”, the “enhancement of the pharmacological effects of AEA” value ([4]; 40 mg/kg, fatty acid amide hydrolase (FAAH) knockout mice) is listed as “significantly enhanced” and the “potency of AEA in the drug discrimination assay” value ([4]; 40 mg/kg) is listed as “significantly increasing”. For the same molecule, the “catalepsy, thermal antinociception, hypothermia or changes in locomotor activity” value ([4]; given alone) was “did not produce”, the half-life at 3 μM (in vitro; human) was 36.7 min and the microsomal CLint at 3 μM (in vitro; human) was 37.8 µL/min/mg. The half-life at 3 μM (in vitro; rat) was 8.1 min, the microsomal CLint at 3 μM (in vitro; rat) was 127 µL/min/mg and the “allodynia induced by mechanical (von Frey filaments) or cold (acetone) stimulation” value (CCI model) was “significantly reversed”. The “Potency % Enhancement 100 nM” value [1] was 56.8% and the “Potency % Enhancement 1000 nM” value [1] was 126.0%.
